ChEMBL document CHEMBL1641509, “A PIM₂ analogue suppresses allergic airway disease” (Bioorg Med Chem, 2011)
The source made the active and inactive calls.

Experiments:
Format in all cases: functional, organism-based
Conditions in all cases: Lung
Mus musculus [1] = test: Antiinflammatory activity against ovalbumin-induced airway allergic C57BL/6 mouse model assessed as decrease of macrophages in bronchoalveolar lavage fluid at 20 ug/mL administered intranasally after 28 days ovalbumin challenge measured on day 32
Mus musculus [2] = test: Antiinflammatory activity against ovalbumin-induced airway allergic C57BL/6 mouse model assessed as reduction of recruitment of eosinophils in bronchoalveolar lavage fluid at 20 ug/mL administered intranasally after 28 days ovalbumin challenge measured on day 32
Mus musculus [3] = test: Antiinflammatory activity against ovalbumin-induced airway allergic C57BL/6 mouse model assessed as decrease of lymphocytes in bronchoalveolar lavage fluid at 20 ug/mL administered intranasally after 28 days ovalbumin challenge measured on day 32

Measured: Activity

CCCCCCCCCCCCCCCCCC(=O)OC[C@H](COP(=O)(O)OC(CO[C@H]1O[C@H](CO)[C@@H](O)[C@H](O)[C@@H]1O)CO[C@H]1O[C@H](CO)[C@@H](O)[C@H](O)[C@@H]1O)OC(=O)CCCCCCCCCCCCCCCCC
active: Mus musculus [1] | Mus musculus [2] | Mus musculus [3]
